Test results: US4902799A, “Bicyclic alkoxy- and alkylthio-substituted aminoalcohols” (Maggioni-Winthrop S.p.A., priority 1985, dated 1990)

Legend:
Normolipemic rats [1] = assay: Hypolipemic activity in normolipemic rats; assay type: in vivo, rat (Sprague Dawley Nos male rats); settings: for CHOL-HDL (in words) / serum TG (in words): oral
Normolipemic rats [2] = settings: "as known"; cited from earlier work
male mice = assay: Anti-hypoxic activity (gasping time after decapitation); assay type: in vivo; settings: Mus musculus, po, pretreatment 90 min, read-out: Gasping time, % diff. from control; for change in vivo at 100 mg/kg: 100 mg/kg/p.o.
in vivo = settings: mouse, po
platelet aggregation = assay: Collagen-induced platelet aggregation ex vivo; assay type: in vivo, rat; settings: 0.15 mM/kg oral, blood 1 hr after treatment, collagen 2-4 mcg/ml

| Structure (SMILES) | LD50 (in vivo) | CHOL, % different from control (Normolipemic rats [1]; 0.37 mM/kg/p.o. × 4 days) | CHOL-HDL, % different from control (Normolipemic rats [1]; 0.37 mM/kg/p.o. × 4 days) | Liver Weight, % different from control (Normolipemic rats [1]; 0.37 mM/kg/p.o. × 4 days) | TG, % different from control (Normolipemic rats [1]; 0.37 mM/kg/p.o. × 4 days) | CHOL-HDL (in words) (Normolipemic rats [1]) | serum TG (in words) (Normolipemic rats [1]) | % Inhibition, Aggregation rate (platelet aggregation) | % Inhibition, Maximum aggregation (platelet aggregation) | change in vivo at 100 mg/kg (male mice) | other results |
| --- | --- | --- | --- | --- | --- | --- | --- | --- | --- | --- | --- |
| CCOC(=O)C(C)(C)Oc1ccc(Cl)cc1 [Clofibrate, reference compound] | – | – | – | – | – | – | – | – | – | – | CHOL, % different from control (Normolipemic rats [1]; 0.82 mM/kg/p.o. × 4 days): -15.0%; CHOL-HDL, % different from control (Normolipemic rats [1]; 0.82 mM/kg/p.o. × 4 days): 0%; Liver Weight, % different from control (Normolipemic rats [1]; 0.82 mM/kg/p.o. × 4 days): +19.5%; TG, % different from control (Normolipemic rats [1]; 0.82 mM/kg/p.o. × 4 days): -40.0%; liver increase (in words) (Normolipemic rats [2]): significative liver increase |
| Fc1ccc(C(c2ccc(F)cc2)N2CCN(C/C=C/c3ccccc3)CC2)cc1 [Flunarizine, reference compound] | – | – | – | – | – | – | – | – | – | – | change in vivo at 50 mg/kg (male mice; 50 mg/kg/p.o.): 68.7% |
| CSc1ccc2cc(C(O)C(C)N3CCN(C(=O)c4ccco4)CC3)ccc2c1 (centres unmarked) [MG 28451, 2-[4-(2-Furoyl)-1-piperazinyl]-1-(6-methylthio-2-naphthyl)-propanol] | > 1000 mg/kg | -13.5% | +46.5% | +9.2% | -48.2% | increase of CHOL-HDL | significative decrease of serum TG | – | – | – | – |
| CSc1ccc2cc(C(O)C(C)N3CCN(C(=O)c4cccnc4)CC3)ccc2c1 (centres unmarked) [MG 28453, 2-[4-(3-Pyridinylcarbonyl)-1-piperazinyl]-1-(6-methylthio-2-naphthyl)-propanol] | – | -26.9% | +31.7% | +21.6% | -75.4% | increase of CHOL-HDL | significative decrease of serum TG | – | – | – | CHOL, % different from control (Normolipemic rats [1]; 0.185 mM/kg/p.o. × 4 days): +8.5%; CHOL-HDL, % different from control (Normolipemic rats [1]; 0.185 mM/kg/p.o. × 4 days): +45.2%; Liver Weight, % different from control (Normolipemic rats [1]; 0.185 mM/kg/p.o. × 4 days): +2.8%; TG, % different from control (Normolipemic rats [1]; 0.185 mM/kg/p.o. × 4 days): -36.4% |
| COc1ccc2cc(C(O)C(C)N3CCN(C(=O)C=Cc4cc(OC)c(OC)c(OC)c4)CC3)ccc2c1 (centres unmarked) [MG 28472, 2-[4-(1-Oxo-3-(3,4,5-trimethoxyphenyl)-2-propenyl)-1-piperazinyl]-1-(6-methoxy-2-naphthyl)-propanol] | – | – | – | – | – | – | – | 65.3% | 75.7% | – | – |
| COc1ccc2cc(C(O)C(C)N3CCN(c4ccccc4)CC3)ccc2c1 (centres unmarked) [MG 38068, 2-(4-Phenyl-1-piperazinyl)-1-(6-methoxy-2-naphthyl)-propanol] | > 1000 mg/kg | -21.8% | +32.9% | +0.3% | -56.9% | increase of CHOL-HDL | significative decrease of serum TG | 54.4% | 58.8% | – | CHOL, % different from control (Normolipemic rats [1]; 0.185 mM/kg/p.o. × 4 days): -3.7%; CHOL-HDL, % different from control (Normolipemic rats [1]; 0.185 mM/kg/p.o. × 4 days): +5.0%; Liver Weight, % different from control (Normolipemic rats [1]; 0.185 mM/kg/p.o. × 4 days): +2.6%; TG, % different from control (Normolipemic rats [1]; 0.185 mM/kg/p.o. × 4 days): -45.0% |
| COc1ccc2cc(C(O)C(C)N3CCN(C(=O)C=Cc4ccccc4)CC3)ccc2c1 (centres unmarked) [MG 38071, 2-[4-(1-Oxo-3-phenyl-2-propenyl)-1-piperazinyl]-1-(6-methoxy-2-naphthyl)-propanol] | – | – | – | – | – | – | – | – | – | 32.7% | – |
| CCCCCCCCNC(C)C(O)c1ccc2cc(OC)ccc2c1 (centres unmarked) [MG 38077] | – | – | – | – | – | – | – | – | – | 71% | – |
| COc1ccc2cc(C(O)C(C)N3CCN(C(=O)c4ccco4)CC3)ccc2c1 (centres unmarked) [MG 38078, 2-[4-(2-Furoyl)-1-piperazinyl]-1-(6-methoxy-2-naphthyl)-propanol] | > 2000 mg/kg | – | – | – | – | – | – | 64.0% | 70.4% | – | – |
| COc1ccc2cc(C(O)C(C)N3CCN(c4ccccc4OC)CC3)ccc2c1 (stereo not drawn) [MG 38098, threo-2-[4-(2-Methoxyphenyl)-1-piperazinyl]-1-(6-methoxy-2-naphthyl)-propanol] | – | – | – | – | – | – | – | – | – | 41.1% | – |
